# From patent US20140023611A1 (priority 2010, published 2014)
# Biological target: T1, rat NaP2b (SLC34A2) (Rattus norvegicus, UniProt Q9JJ09)
# T1 construct: host or cells: HEK293
# T1 sequence (Q9JJ09 1-695): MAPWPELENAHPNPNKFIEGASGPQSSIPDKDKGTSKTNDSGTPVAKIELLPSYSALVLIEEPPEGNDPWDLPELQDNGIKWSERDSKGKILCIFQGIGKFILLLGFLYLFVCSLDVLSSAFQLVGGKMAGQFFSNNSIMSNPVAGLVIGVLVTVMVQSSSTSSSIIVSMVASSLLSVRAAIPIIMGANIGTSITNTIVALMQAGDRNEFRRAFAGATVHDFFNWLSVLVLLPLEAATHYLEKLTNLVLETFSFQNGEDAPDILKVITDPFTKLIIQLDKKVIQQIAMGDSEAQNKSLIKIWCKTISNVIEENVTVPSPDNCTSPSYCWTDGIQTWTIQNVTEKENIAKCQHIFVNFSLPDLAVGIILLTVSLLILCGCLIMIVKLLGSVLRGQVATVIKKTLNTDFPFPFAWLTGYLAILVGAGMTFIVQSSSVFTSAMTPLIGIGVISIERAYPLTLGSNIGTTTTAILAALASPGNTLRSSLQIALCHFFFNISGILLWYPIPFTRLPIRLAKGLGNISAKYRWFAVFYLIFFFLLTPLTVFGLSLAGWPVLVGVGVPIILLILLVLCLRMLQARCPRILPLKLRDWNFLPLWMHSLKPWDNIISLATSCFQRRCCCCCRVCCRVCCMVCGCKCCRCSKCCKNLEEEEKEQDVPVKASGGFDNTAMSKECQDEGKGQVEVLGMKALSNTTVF
# Experiment: Inhibition of NaP2b-mediated Pi (33P) uptake in transfected HEK293 cells, rat NaP2b
# Type: cell-based
# Conditions: 33P Pi uptake, 0.1 mM phosphate, value given as pIC50 range
# Procedure, shortened: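 HEK293 cells were transiently transfected with NaP2b cDNA using Lipofectamine and grown near confluence. Compounds were tested at twelve concentrations from 0.1 nM to 30 uM in duplicate, and 33P-phosphate uptake was counted by scintillation after lysis. Results are expressed as pIC50.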
row,IC50 [µM],Structure (SMILES)
1,1 to 7.94,O=C(NCc1cccc(C(F)(F)F)c1)c1ccnc(-c2cc(N3CCCCC3)ccc2NC(=O)c2cccc(CSc3ncc(C(=O)O)c(O)n3)c2)c1 [Example 8.14]
2,10 to 31.6,"O=C(O)CNC(=O)CCSCc1cccc(C(=O)Nc2ccc(N3CCCCC3)cc2-c2cc(C(=O)NCc3cccc(C(F)(F)F)c3)ccn2)c1 [Example 4.18, 2-(3-((3-((4-(Piperidin-1-yl)-2-(4-((3-(trifluoromethyl)benzyl)carbamoyl)pyridin-2-yl)phenyl)carbamoyl)benzyl)thio)propanamido)acetic acid]"
3,1 to 7.94,CN(Cc1ncc[nH]1)C(=O)c1cccc(C(=O)Nc2ccc(N3CCCCC3)cc2-c2cc(C(=O)NCc3cccc(C(F)(F)F)c3)ccn2)c1 [Example 4.24]
4,1 to 7.94,O=C(NCCN1CCOCC1)c1cccc(SCc2cccc(C(=O)Nc3ccc(N4CCCCC4)cc3-c3cc(C(=O)NCc4cccc(C(F)(F)F)c4)ccn3)c2)c1 [Example 10.6]
5,1 to 7.94,O=C(O)CCSCc1cccc(C(=O)Nc2ccc(N3CCCCC3)cc2-c2cc(C(=O)NCc3ccccc3OC(F)(F)F)ccn2)c1 [Example 1.43]
6,1 to 7.94,O=C(O)CCSCc1cccc(C(=O)Nc2ccc(N3CCCCC3)cc2-c2cc(C(=O)NCc3cccc(OC(F)(F)F)c3)ccn2)c1 [Example 1.45]
7,10 to 31.6,O=C(O)CCSCc1cccc(C(=O)Nc2ccc(N3CCCCC3)cc2-c2cc(C(=O)NCc3cccc(CN4CCOCC4)c3)ccn2)c1 [Example 1.16]
8,1 to 7.94,O=C(O)CCOCCOCCOCCOCCSCc1cccc(C(=O)Nc2ccc(N3CCCCC3)cc2-c2cc(C(=O)NCc3cccc(C(F)(F)F)c3)ccn2)c1 [Example 8.7]
9,1 to 7.94,O=C(O)CCSCc1cccc(C(=O)Nc2ccc(N3CCCCC3)cc2-c2cc(C(=O)NC(c3ccccc3)c3ccccc3)ccn2)c1 [Example 1.36]
10,1 to 7.94,CC(C)(Cc1cccc(SCc2cccc(C(=O)Nc3ccc(N4CCCCC4)cc3-c3cc(C(=O)NCc4cccc(C(F)(F)F)c4)ccn3)c2)c1)C(=O)O [Example 8.20]
11,1 to 7.94,O=C(O)CCSCc1cccc(C(=O)Nc2ccc(N3CCCCC3)cc2-c2cc(C(=O)NCc3ccc(F)c(C(F)(F)F)c3)ccn2)c1 [Example 1.28]
12,10 to 31.6,COCCNC(=O)c1cccc(SCc2cccc(C(=O)Nc3ccc(N4CCCCC4)cc3-c3cc(C(=O)NCc4cccc(C(F)(F)F)c4)ccn3)c2)c1 [Example 10.5]
13,10 to 31.6,"COc1cc(C(=O)Nc2ccc(N3CCCCC3)cc2-c2cc(C(=O)NCc3cccc(C(F)(F)F)c3)ccn2)cc(C(=O)N(C)CCN2CCOCC2)c1 [Example 11.4, 5-Methoxy-N1-methyl-N1-(2-morpholinoethyl)-N3-(4-(piperidin-1-yl)-2-(4-((3-(trifluoromethyl)benzyl)carbamoyl)pyridin-2-yl)phenyl)isophthalamide]"
14,1 to 7.94,O=C(NCc1cccc(C(F)(F)F)c1)c1ccnc(-c2cc(N3CCCCC3)ccc2NC(=O)c2cccc(CSCCCCO)c2)c1 [Example 8.4]
15,1 to 7.94,O=C(O)CCSCc1cccc(C(=O)Nc2ccc(N3CCCCC3)cc2-c2cc(C(=O)NCCc3cccc(C(F)(F)F)c3)ccn2)c1 [Example 1.5]
16,1 to 7.94,Cc1ccc(CNC(=O)c2ccnc(-c3cc(N4CCCCC4)ccc3NC(=O)c3cccc(CSCCC(=O)O)c3)c2)o1 [Example 1.18]
17,1 to 7.94,O=C(O)CCSCc1cccc(C(=O)Nc2ccc(N3CCCCC3)cc2-c2cc(C(=O)NCc3ccc4c(c3)OCO4)ccn2)c1 [Example 1.23]

# More lines, now with the values behind:
row,Structure (SMILES),IC50 [µM]
1,"COCCOCCOCCOCCOCCOCCOCCN(C)C(=O)[C@@H]1CCCN1CCN(C)C(=O)c1cccc(C(=O)Nc2ccc(N3CCCCC3)cc2-c2cc(C(=O)N[C@H]3CCCc4ccccc43)ccn2)c1 [Example 198, N^1-(2-((S)-2-(2,5,8,11,14,17,20-heptaoxadocosan-22-yl(methyl)carbamoyl)pyrrolidin-1-yl)ethyl)-N^1-methyl-N^3-(4-(piperidin-1-yl)-2-(4-(((S)-1,2,3,4-tetrahydronaphthalen-1-yl)carbamoyl)pyridin-2-yl)phenyl)isophthalamide]",10 to 31.6
2,"CCN(CC)c1ccc(NC(=O)c2cccc(C(=O)N(C)CCN(C)CCOCCOCCOCCNC(=O)c3ccc(O)cc3)c2)c(-c2cc(C(=O)N[C@H]3CCCc4ccccc43)ccn2)c1 [Example 345, (S)—N^1-(4-(Diethylamino)-2-(4-(1,2,3,4-tetrahydronaphthalen-1-ylcarbamoyl)pyridin-2-yl)phenyl)-N^3-(1-(4-hydroxyphenyl)-14-methyl-1-oxo-5,8,11-trioxa-2,14-diazahexadecan-16-yl)-N^3-methylisophthalamide]",1 to 7.94
3,"O=C(O)CCOCCOCCOCCNC(=O)CCOCCOCCOCCOCCSCc1cccc(C(=O)Nc2ccc(N3CCCCC3)cc2-c2cc(C(=O)NCc3cccc(C(F)(F)F)c3)ccn2)c1 [Example 155, 17-oxo-1-(3-(4-(piperidin-1-yl)-2-(4-(3-(trifluoromethyl)benzylcarbamoyl)pyridin-2-yl)phenylcarbamoyl)phenyl)-5,8,11,14,21,24,27-heptaoxa-2-thia-18-azatriacontan-30-oic acid]",10 to 31.6
4,CCN(CC)c1ccc(NC(=O)c2cccc(CCCOCCOCCOCCOCCNC(=O)C34CC5CC(CC(C5)C3)C4)c2)c(-c2cc(C(=O)N[C@H]3CCCc4ccccc43)ccn2)c1 [Example 322],1 to 7.94
5,CN(CCN1CCOCC1)C(=O)c1cccc(C(=O)Nc2ccc(N3CCCCC3)cc2-c2cc(SCc3ccccc3)ccn2)c1 [Example 109],1 to 7.94
6,O=C(O)CNC(=O)Cc1cccc(SCc2cccc(C(=O)Nc3ccc(N4CCCCC4)cc3-c3cc(C(=O)NCc4cccc(C(F)(F)F)c4)ccn3)c2)c1 [Example 139],10 to 31.6
7,O=C(O)CCSCc1cccc(C(=O)Nc2ccc(N3CCCCC3)cc2-c2cc(C(F)(F)c3cccc(C(F)(F)F)c3)ccn2)c1 [Example 93],10 to 31.6
8,"CCN(CC)c1ccc(NC(=O)c2cccc(CCCOCCOCCOCC[N+](CC)(CC)CC)c2)c(-c2cc(C(=O)NCc3cccc(C(F)(F)F)c3)ccn2)c1 [Example 330, 2-(2-(2-(3-(3-(4-(diethylamino)-2-(4-(3-(trifluoromethyl)benzylcarbamoyl)pyridin-2-yl)phenylcarbamoyl)phenyl)propoxy)ethoxy)ethoxy)-N,N,N-triethylethanaminium]",1 to 7.94
9,"O=C(O)CCSCc1cccc(C(=O)Nc2ccc(Cl)cc2-c2cc(NCc3cccc(C(F)(F)F)c3)ncn2)c1 [Example 66, 3-((3-((4-Chloro-2-(6-((3-(trifluoromethyl)benzyl)amino)pyrimidin-4-yl)phenyl)carbamoyl)benzyl)thio)propanoic acid]",10 to 31.6
10,"CCN(CC)c1ccc(NC(=O)c2cccc(C(=O)N(C)CCN(C)CCOCCOCCOCCNC(C)=O)c2)c(-c2cc(C(=O)N[C@H]3CCCc4ccccc43)ccn2)c1 [Example 341, (S)—N^1-(4-(Diethylamino)-2-(4-(1,2,3,4-tetrahydronaphthalen-1-ylcarbamoyl)pyridin-2-yl)phenyl)-N^3-methyl-N^3-(3-methyl-16-oxo-6,9,12-trioxa-3,15-diazaheptadecyl)isophthalamide]",1 to 7.94
11,"CN(CCN1CCOCC1)C(=O)Nc1cccc(C(=O)Nc2ccc(N3CCCCC3)cc2-c2cc(C(=O)N[C@H]3CCCc4ccccc43)ccn2)c1 [Example 245, (S)-2-(2-(3-(3-methyl-3-(2-morpholinoethyl)ureido)benzamido)-5-(piperidin-1-yl)phenyl)-N-(1,2,3,4-tetrahydronaphthalen-1-yl)isonicotinamide]",10 to 31.6
